The source made the active and inactive calls.
Experiments:
[1] = Trypanosoma cruzi growth suppression in host cells – NIH3T3 host cells, beta-gal luminescence, confirmation (AID 2044); assay type: functional, cell-based;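 also: intracellular parasites grown in NIH/3T3 mouse fibroblasts as host cells; luminescent beta-galactosidase reporter signal from transgenic T. cruzi replicating inside host cells; inhibitors lower the luminescence signal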
[2] = reduction of Shn3 3'UTR-driven luciferase in osteoblasts – cell-based, Clone20 osteoblasts, firefly luciferase, cherry-picked, dose response (AID 624132); assay type: functional;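 also: firefly luciferase luminescence from reporter carrying the Shn3 3'UTR in osteoblasts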
[3] = loss of viability in HepG2 cells – cell-based, CellTiter-Glo, cherry-picked, cytotoxicity control for Shn3 inhibitor project, dose response (AID 624134); assay type: functional
INS1 = experiment: INS-1E survival protection against cytokine death – cell-based, luminescence, retest, dose response (AID 449756); assay type: functional; details: Rattus norvegicus;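 also: cell death triggered by IL-1 beta plus TNF-alpha plus IFN-gamma mixture; protective hits raise ATP signal compared with cytokine alone wells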
[4] = non-specific 3'UTR reporter inhibition in Clone20-Shn3RL – cell-based, Renilla luciferase, cherry-picked, counter-screen for Shn3 inhibitor project, dose response (AID 624133); assay type: functional
[5] = NIH3T3 cell viability loss – ATP luminescence, mouse fibroblasts, counter-screen, dose response (AID 2010); assay type: functional, cell-based;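 also: cells exposed to compound for about 90 hours before reading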
[6] = luciferase reporter signal suppression in cells – H4 neuroglioma cells, luminescence, dose response (AID 1990); assay type: functional, cell-based
[7] = Luminescence Cell-Based Dose Response HTS to Identify Inhibitors of 5'UTR Stem-Loop Driven Prion Protein mRNA Translation in H4 Neuroglioblastoma Cells. [Related pubchem assays: 1827 (Project Summary), 1813 (Primary HTS)]; assay type: functional
[8] = alpha-synuclein stem-loop luciferase translation blockers – H4 neuroglioma cells, luminescence, confirmation (AID 1988); assay type: functional, cell-based
Protein RecA = target: T1, Protein RecA (Mycobacterium tuberculosis, UniProt P9WHJ3); experiment: Fluorescence Cell-Free Homogeneous Dose Retest to Identify Inhibitors of RecA-Intein Splicing Activity. [Related pubchem assays (depositor defined):AID2097, AID2223, AID489010, AID492950]; assay type: functional
T1 sequence (P9WHJ3 whole entry): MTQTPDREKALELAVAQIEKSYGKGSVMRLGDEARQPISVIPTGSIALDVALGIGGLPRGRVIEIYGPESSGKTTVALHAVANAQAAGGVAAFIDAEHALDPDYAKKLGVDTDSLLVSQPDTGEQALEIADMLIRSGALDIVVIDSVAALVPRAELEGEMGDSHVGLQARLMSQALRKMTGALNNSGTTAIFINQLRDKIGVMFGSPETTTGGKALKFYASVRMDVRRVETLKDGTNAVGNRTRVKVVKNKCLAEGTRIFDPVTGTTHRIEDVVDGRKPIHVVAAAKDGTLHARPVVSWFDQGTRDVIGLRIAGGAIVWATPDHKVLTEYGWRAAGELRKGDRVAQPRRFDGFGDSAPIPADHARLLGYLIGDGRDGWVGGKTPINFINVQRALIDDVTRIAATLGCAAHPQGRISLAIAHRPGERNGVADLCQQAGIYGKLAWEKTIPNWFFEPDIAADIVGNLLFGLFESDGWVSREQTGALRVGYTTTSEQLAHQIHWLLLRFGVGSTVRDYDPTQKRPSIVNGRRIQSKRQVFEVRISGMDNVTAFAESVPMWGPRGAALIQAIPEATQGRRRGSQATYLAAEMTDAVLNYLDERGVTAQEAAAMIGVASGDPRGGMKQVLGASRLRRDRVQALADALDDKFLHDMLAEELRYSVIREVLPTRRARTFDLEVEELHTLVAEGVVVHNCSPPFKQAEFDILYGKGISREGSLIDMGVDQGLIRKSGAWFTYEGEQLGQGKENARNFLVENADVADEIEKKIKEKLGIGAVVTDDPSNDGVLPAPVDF

[9] = target: T2, Replicative DNA helicase DnaB (Mycobacterium tuberculosis, UniProt P9WMR3); experiment: DnaB intein splicing inhibitors, dose response, biochemical, cell-free fluorescence (AID 449749); assay type: functional
T2 sequence (P9WMR3 whole entry): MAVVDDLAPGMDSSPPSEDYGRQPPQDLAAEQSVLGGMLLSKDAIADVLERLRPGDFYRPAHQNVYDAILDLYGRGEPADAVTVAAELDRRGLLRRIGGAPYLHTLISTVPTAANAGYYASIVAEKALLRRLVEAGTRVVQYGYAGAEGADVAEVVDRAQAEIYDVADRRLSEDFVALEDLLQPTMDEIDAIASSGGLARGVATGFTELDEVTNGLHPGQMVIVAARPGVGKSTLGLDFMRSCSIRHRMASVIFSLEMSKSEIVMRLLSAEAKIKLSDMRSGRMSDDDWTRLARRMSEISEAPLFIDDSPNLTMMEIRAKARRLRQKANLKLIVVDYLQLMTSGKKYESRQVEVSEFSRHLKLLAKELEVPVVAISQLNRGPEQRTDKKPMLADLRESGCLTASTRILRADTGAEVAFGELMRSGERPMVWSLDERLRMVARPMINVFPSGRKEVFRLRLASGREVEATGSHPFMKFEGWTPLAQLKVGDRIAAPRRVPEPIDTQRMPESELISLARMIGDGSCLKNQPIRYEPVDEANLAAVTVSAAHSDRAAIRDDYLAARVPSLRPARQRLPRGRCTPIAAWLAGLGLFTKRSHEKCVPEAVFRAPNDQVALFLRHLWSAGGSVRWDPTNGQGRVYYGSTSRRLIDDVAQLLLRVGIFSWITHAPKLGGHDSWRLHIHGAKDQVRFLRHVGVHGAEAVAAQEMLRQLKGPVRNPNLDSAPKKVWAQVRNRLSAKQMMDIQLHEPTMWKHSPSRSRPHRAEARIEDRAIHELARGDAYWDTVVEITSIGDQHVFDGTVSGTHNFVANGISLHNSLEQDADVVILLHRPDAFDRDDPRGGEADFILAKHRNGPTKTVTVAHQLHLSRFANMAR

Fatty acid synthase [10] = target: T3, Fatty acid synthase (Homo sapiens, UniProt P49327); experiment: inhibition of human FAS-TE enzyme activity – biochemical, kinetic fluorescence intensity, dose response (AID 624326); assay type: functional;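 also: rate of fluorescence rise from hydrolysis of a fluorogenic O-methyl fluorescein ester substrate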
T3 sequence (P49327 whole entry): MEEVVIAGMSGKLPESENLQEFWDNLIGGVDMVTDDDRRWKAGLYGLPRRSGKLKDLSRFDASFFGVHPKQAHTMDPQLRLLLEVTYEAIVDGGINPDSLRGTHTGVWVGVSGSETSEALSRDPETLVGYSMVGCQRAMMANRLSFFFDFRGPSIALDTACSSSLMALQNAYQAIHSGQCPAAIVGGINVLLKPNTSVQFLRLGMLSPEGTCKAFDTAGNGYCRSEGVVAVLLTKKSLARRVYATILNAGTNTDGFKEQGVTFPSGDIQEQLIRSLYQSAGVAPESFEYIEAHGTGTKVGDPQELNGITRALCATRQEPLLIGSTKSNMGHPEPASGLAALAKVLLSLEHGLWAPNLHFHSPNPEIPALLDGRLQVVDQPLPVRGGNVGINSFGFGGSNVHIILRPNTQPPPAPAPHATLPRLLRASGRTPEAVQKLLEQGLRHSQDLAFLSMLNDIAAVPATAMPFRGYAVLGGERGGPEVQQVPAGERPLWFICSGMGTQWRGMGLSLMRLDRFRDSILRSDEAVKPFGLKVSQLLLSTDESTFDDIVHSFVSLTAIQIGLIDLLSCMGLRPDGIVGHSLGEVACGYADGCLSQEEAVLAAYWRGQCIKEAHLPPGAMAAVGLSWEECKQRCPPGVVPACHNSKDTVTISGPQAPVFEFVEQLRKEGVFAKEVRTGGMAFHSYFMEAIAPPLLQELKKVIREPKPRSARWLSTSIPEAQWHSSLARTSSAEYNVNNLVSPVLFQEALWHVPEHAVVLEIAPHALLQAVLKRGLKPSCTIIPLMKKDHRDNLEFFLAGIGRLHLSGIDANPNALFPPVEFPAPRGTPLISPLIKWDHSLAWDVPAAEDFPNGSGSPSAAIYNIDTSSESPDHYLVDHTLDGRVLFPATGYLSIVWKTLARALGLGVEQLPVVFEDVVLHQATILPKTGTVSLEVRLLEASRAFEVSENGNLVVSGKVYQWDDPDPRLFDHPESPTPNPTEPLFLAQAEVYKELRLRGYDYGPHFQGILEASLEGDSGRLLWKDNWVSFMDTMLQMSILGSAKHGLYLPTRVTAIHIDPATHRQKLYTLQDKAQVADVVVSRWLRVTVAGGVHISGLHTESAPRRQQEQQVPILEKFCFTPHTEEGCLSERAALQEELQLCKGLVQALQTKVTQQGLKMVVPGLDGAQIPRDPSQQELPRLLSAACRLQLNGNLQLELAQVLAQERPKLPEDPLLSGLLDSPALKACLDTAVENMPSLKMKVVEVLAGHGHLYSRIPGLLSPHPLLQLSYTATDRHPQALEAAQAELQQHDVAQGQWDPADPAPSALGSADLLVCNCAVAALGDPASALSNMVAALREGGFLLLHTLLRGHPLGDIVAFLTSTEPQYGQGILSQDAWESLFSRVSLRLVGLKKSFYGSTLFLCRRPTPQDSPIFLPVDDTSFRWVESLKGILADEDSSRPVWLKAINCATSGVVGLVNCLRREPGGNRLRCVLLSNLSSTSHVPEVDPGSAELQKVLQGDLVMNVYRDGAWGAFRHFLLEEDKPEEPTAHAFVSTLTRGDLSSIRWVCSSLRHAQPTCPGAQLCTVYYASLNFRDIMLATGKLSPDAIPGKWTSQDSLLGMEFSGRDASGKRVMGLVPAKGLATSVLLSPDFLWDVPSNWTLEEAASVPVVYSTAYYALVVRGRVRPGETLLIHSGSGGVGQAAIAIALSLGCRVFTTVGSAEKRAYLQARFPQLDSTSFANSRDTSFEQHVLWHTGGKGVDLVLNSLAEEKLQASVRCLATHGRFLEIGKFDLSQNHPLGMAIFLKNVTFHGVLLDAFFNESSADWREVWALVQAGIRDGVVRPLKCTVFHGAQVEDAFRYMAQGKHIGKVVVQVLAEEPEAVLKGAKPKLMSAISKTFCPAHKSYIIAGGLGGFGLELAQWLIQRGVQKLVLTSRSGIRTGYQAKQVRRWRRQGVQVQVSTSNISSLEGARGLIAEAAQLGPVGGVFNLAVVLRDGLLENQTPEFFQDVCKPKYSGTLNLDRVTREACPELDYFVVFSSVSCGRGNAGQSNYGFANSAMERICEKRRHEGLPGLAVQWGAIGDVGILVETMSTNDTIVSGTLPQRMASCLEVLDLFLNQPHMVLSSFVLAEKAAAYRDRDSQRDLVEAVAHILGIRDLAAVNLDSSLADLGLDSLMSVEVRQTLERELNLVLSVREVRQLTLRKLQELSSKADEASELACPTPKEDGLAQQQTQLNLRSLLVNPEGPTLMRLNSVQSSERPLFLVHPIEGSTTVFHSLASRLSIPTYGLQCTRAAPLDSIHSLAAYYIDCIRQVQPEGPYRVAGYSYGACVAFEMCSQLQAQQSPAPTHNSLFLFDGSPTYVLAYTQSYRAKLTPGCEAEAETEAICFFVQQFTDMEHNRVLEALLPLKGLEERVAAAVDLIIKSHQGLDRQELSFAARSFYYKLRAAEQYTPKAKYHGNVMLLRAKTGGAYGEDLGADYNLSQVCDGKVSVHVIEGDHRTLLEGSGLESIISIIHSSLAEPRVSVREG

Fatty acid synthase [11] = target: T3, Fatty acid synthase; experiment: inhibition of human FAS-TE enzyme activity – biochemical, endpoint fluorescence intensity, uHTS hits, dose response (AID 624327); assay type: functional;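 also: fluorescence from hydrolysis of an O-methyl fluorescein acyl ester substrate by the enzyme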
[12] = target: T4, Short transient receptor potential channel 4 (Mus musculus, UniProt Q9QUQ5); experiment: calcium entry via TRPC4 opening agents – cell-based, HEK293 TRPC4/mu-opioid, Fluo-4 calcium, dose response (AID 434937); assay type: functional
T4 sequence (Q9QUQ5 whole entry): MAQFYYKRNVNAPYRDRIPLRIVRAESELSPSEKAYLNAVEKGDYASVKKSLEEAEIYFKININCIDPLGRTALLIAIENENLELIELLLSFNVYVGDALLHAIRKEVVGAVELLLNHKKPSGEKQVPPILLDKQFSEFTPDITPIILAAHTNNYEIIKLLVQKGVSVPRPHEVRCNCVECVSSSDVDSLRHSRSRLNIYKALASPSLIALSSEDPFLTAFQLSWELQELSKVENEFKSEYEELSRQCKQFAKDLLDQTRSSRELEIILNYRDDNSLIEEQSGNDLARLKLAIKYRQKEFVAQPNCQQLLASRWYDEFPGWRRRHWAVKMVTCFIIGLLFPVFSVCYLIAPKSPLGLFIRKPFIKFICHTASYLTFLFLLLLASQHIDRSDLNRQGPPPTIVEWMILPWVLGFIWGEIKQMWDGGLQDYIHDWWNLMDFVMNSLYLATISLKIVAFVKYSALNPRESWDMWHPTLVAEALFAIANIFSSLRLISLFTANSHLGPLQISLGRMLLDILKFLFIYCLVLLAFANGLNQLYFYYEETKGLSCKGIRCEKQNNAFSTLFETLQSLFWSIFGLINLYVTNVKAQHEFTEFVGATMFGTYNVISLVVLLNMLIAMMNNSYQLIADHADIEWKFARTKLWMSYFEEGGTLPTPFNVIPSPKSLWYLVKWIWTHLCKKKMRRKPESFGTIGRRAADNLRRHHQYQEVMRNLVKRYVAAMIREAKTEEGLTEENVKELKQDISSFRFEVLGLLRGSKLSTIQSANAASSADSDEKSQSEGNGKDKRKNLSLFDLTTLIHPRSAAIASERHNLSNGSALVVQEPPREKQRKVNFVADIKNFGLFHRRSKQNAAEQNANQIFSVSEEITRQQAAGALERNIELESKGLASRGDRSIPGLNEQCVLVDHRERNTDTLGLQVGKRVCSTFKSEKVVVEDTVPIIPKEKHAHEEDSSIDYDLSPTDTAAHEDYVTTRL

[13] = growth inhibition of yeast DHODH-expressing 3D7 parasites – SYBR Green, dry powder samples, dose response (AID 1159570); assay type: functional, cell-based;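 also: parasite growth measured after 72 hours of compound exposure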
[14] = Dd2 malaria parasite growth inhibition potency – SYBR Green, dry powder samples, dose response (AID 1159566); assay type: functional, cell-based;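 also: potency for growth inhibition with lower SYBR green DNA signal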
[15] = P. falciparum Dd2 growth inhibitors, dose response, SYBR Green, cherry-picked samples (AID 1159567); assay type: functional, cell-based
[16] = growth inhibition of PfATP4-mutant resistant parasites – NITD609-resistant line, SYBR Green, dry powder, dose response (AID 1159571); assay type: functional, cell-based;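 also: parasites synchronized at ring stage by sorbitol before testing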

With COc1ccc(CNCCc2c(C)[nH]c3ccc(OC(F)(F)F)cc23)c(OC)c1 the EC50 [1] was 0.703 µM (active), the AC50 [2] was 0.963 µM (active) and the AC50 [3] was 9.13 µM (active). For the same compound, the AC50 (INS1) was 4.68 µM (active), the AC50 [4] was 8.45 µM (active) and the EC50 [5] was > 60 µM (not active). The EC50 [6] was 17.7 µM (active), the EC50 [7] was > 120 µM (not active) and the EC50 [8] was > 120 µM (not active).

With CCCc1n[nH]c2c1C(c1ccccc1OC)C(C#N)=C(N)O2 (stereo not given) the EC50 (Protein RecA) was 2.07 µM (active) and the AC50 [9] was 15.9 µM (active).

For Cc1ccc(C(=O)NCCNc2ncc(C(F)(F)F)cc2Cl)cc1[N+](=O)[O-], the IC50 (Fatty acid synthase [10]) was 9.8 µM (active) and the IC50 (Fatty acid synthase [11]) was 8.99 µM (active).

In the case of Clc1cc(Cl)cc(C2=NC(Cc3ccccc3)CO2)c1 (stereo not given), the EC50 [12] is reported as 5.31 µM (active).

For CN(C)C(CNC(=O)Nc1cccc(Cl)c1)c1cccnc1 (stereo not given), the EC50 [12] was 0.0267 µM (active).

With O=S(=O)(Nc1cccc(-n2cnnn2)c1)c1cnc(Cl)c(Cl)c1 the IC50 (Fatty acid synthase [10]) was 8.01 µM (active) and the IC50 (Fatty acid synthase [11]) was 5.37 µM (active).

In the case of COc1ccccc1CNc1nc(NCc2ccc(C(C)C)cc2)c2sccc2n1, the AC50 [2] is reported as 6.81 µM (active), the AC50 [3] is reported as 39.4 µM (active) and the AC50 [4] is reported as 10.5 µM (active).

In the case of CC1(C)CC(=O)C=C(c2ccc(COC(=O)c3ccccc3)cc2)C1=O, the IC50 (Fatty acid synthase [10]) is reported as 3.75 µM (active) and the IC50 (Fatty acid synthase [11]) is reported as 7.19 µM (active).

In the case of COc1ccc(C#Cc2cnc3c(c2)C(=O)N([C@H](C)CO)C[C@H](C)[C@H](CN(C)S(=O)(=O)c2cccc(F)c2)O3)cc1OC, the AC50 [13] is reported as 1.8 µM (active), the AC50 [14] is reported as 0.774 µM (active) and the AC50 [15] is reported as 1.38 µM (active). The AC50 [16] was 1.17 µM (active).

For CC(C)(C)[S@+]([O-])N1Cc2cc(C(=O)N[C@@H]3CCN(Cc4ccccc4)C3)nc(-c3cccc(-c4cccnc4)c3)c2[C@@H]1CCO, the AC50 [13] was 2.62 µM (active), the AC50 [14] was 1.99 µM (active) and the AC50 [15] was 1.93 µM (active). For the same compound, the AC50 [16] was 1.98 µM (active).

— ChEMBL document CHEMBL1201862, “PubChem BioAssay data set” (2004)
